Experiments:
Plasmodium falciparum [1] = assay: Hit confirmation in dose-response curve in NF54 nanoGlo assay, at 12h; type: functional, organism-based, Erythrocyte; design: timepoint 12 hour; conditions: Plasmodium falciparum, NF54, Erythrocyte, 12 h
Plasmodium falciparum [2] = assay: Hit confirmation in dose-response curve in NF54 nanoGlo assay, at 72h; type: functional, organism-based, Erythrocyte; design: timepoint 72 hour; conditions: Plasmodium falciparum, NF54, Erythrocyte, 72 h
Plasmodium falciparum [3] = assay: Hit confirmation in dose-response curve in NF54 pLDH assay, at 72h; type: functional, organism-based, Erythrocyte; design: timepoint 72 hour; conditions: Plasmodium falciparum, NF54, Erythrocyte, 72 h
[4] = Hit confirmation in dose-response curve in HepG2 cytotoxicity assay, at 72h; type: toxicity, cell-based, Homo sapiens; design: timepoint 72 hour; conditions: human, HepG2 cells
Plasmodium falciparum [5] = assay: Hit confirmation in dose-response curve in Dd2 pLDH assay, at 72h; type: functional, organism-based, Erythrocyte; design: timepoint 72 hour; conditions: Plasmodium falciparum, Dd2, Erythrocyte, 72 h

IC50 (Plasmodium falciparum [1]) | IC50 (Plasmodium falciparum [2]) | IC50 (Plasmodium falciparum [3]) | IC50 (Plasmodium falciparum [5]) | SMILES | IC50 at 72 h [4]
0.977 µM | 1230 nM | 6.61 µM | 4370 nM | Cc1nc(N2CCN(C)CC2)cc(N2CCN(S(=O)(=O)c3ccccc3C(F)(F)F)CC2)n1 | > 10 µM
9.55 µM | 2820 nM | 3.55 µM | 3310 nM | N[C@H]1CC[C@@H](NC2CCN(c3ccc(F)c(F)c3)CC2)CC1 | 7.76 µM
> 10 µM | 8710 nM | 8.32 µM | > 10000 nM | Nc1cc(N2CCC(c3nc4cc(F)ccc4[nH]3)CC2)nc(N2CCOCC2)n1 | > 10 µM
6.03 µM | 2880 nM | 4.57 µM | 4170 nM | COc1ccc2cc(-c3cc(N)ccn3)[nH]c2c1 | > 10 µM
> 10 µM | 1480 nM | 0.398 µM | 575 nM | C[C@H]1CCCN(CCNC(=O)c2ccc(-c3ccc4c(=O)[nH]ccc4c3)cc2)C1 | > 10 µM
8.91 µM | 6310 nM | > 10 µM | > 10000 nM | CCCC(=O)NC1COCC1Cc1ccncc1 (stereo not given) | > 10 µM
3.09 µM | 1510 nM | 1.74 µM | 1620 nM | CCN(Cc1[nH]c2ccc(Cl)cc2c1C)CC1CCN(C2CCN(C)CC2)CC1 | > 10 µM
> 10 µM | 2510 nM | 3.39 µM | 2140 nM | Cc1cnccc1NCCNCc1cnc(N2CCCCC2)nc1 | > 10 µM
> 10 µM | 2450 nM | 2.63 µM | 2290 nM | CNc1nc(N[C@H]2CCCN(Cc3ccc(Cl)cc3)C2)nc2c1CCC2 | > 10 µM
> 10 µM | 1230 nM | 3.31 µM | 2690 nM | Nc1ccnc2ccc(-c3ccc(C(=O)NCC4CCOCC4)cc3)cc12 | > 10 µM
8.51 µM | 2140 nM | 3.47 µM | 2240 nM | COc1cc2nc(NCC3(N4CCN(C)CC4)CCCC3)cc(C)c2cc1OC | > 10 µM
> 10 µM | 7240 nM | > 10 µM | > 10000 nM | Cc1ccc2c(-c3ccccc3CN3CCNCC3)cccc2n1 | > 10 µM
3.63 µM | 1780 nM | 2.63 µM | 2630 nM | Cc1ccc2[nH]c(-c3cc4n(n3)CCN(c3ccnc(N)n3)C4)nc2c1C | > 10 µM

Further lines, the compound ahead of its results:

SMILES | IC50 (Plasmodium falciparum [1]) | IC50 (Plasmodium falciparum [2]) | IC50 (Plasmodium falciparum [3]) | IC50 (Plasmodium falciparum [5]) | IC50 at 72 h [4]
CN1C2CCC1CC(OC(=O)C1CCC(C(=O)OC3CC4CCC(C3)N4C)(c3ccccc3)c3ccccc31)C2 (stereo not given) | 3.89 µM | 2880 nM | 3.8 µM | 3310 nM | > 10 µM
Cc1cc(C)c(CN2CCN(C)CC2)cc1CNCCCn1ccnc1C | 7.41 µM | 3890 nM | 3.89 µM | 3390 nM | > 10 µM
c1ccc(CCC23CN(Cc4ccccn4)CC2CN(Cc2ccns2)C3)cc1 (stereo not given) | 6.46 µM | 1450 nM | 3.55 µM | 4170 nM | > 10 µM
Cc1cc(O)c(Cl)cc1-c1cccc2c(N)ccnc12 | > 10 µM | 1170 nM | 1.48 µM | 2040 nM | > 10 µM
Cc1noc(-c2ccnc(NC[C@@H](c3ccccn3)N3CCOCC3)c2)n1 | > 10 µM | 1580 nM | 3.98 µM | 3020 nM | > 10 µM
Cc1cc(N2CCC(NC3CCCC3Cc3ccc(F)cc3)CC2)nc(N)n1 (stereo not given) | 3.02 µM | 912 nM | 1.1 µM | 1100 nM | 4.68 µM
Cc1nc2ccc(CNC3CCN(c4ccc(F)c(F)c4)CC3)cc2[nH]1 | > 10 µM | 4570 nM | 3.72 µM | 3550 nM | > 10 µM
Cc1ccc2nc(NC[C@H]3CCN(C4CC4)C3)cc(C)c2c1 | 3.16 µM | 2040 nM | 3.02 µM | 2450 nM | > 10 µM
CNc1nc(C)cc(N[C@@H]2COc3ccccc3C2)n1 | > 10 µM | 3390 nM | 5.25 µM | 3800 nM | > 10 µM
c1ccc(CN2CCC(CCNC[C@@H]3CCCN4CCCC[C@H]34)CC2)cc1 | 7.24 µM | 2340 nM | 2.57 µM | 1780 nM | > 10 µM
COc1cc2nc(-c3ccc(F)c4cccnc34)nc(N)c2cc1OC | 1.55 µM | 912 nM | 1.1 µM | 1120 nM | 1.02 µM
Cc1cc(O)c(Cl)cc1-c1ccc2nccc(N)c2c1 | > 10 µM | 324 nM | 0.38 µM | 302 nM | > 10 µM
Cc1cccc(N2CCC(NCc3cc(C)cc(CN4CCN(C)CC4)c3C)CC2)c1 | 5.89 µM | 3090 nM | 2.95 µM | 3020 nM | > 10 µM
Cc1cnccc1NCCNCc1cccc(OCCCCN2CCOCC2)c1 | 2.75 µM | 1450 nM | 1.38 µM | 1200 nM | > 10 µM
Cc1ccccc1-c1cccc(N2CCC(NCC3CCNCC3)CC2)c1 | 2.88 µM | 1150 nM | 1.41 µM | 1290 nM | 5.5 µM
Cc1cc(N2CCC(NCCCN3CCCc4ccccc43)CC2)nc(N)n1 | > 10 µM | 3090 nM | 3.63 µM | 3720 nM | > 10 µM
Cc1cc(NCCCN2CCC[C@H](O)C2)c2cc(F)ccc2n1 | 7.24 µM | 3390 nM | 3.89 µM | 2690 nM | > 10 µM
CCN(Cc1cnn(-c2cccc(Cl)c2)c1)CC1CCN(C2CCN(C)CC2)CC1 | 2.69 µM | 1550 nM | 1.35 µM | 1230 nM | > 10 µM
COCCN1CCC[C@@]2(CCN(c3ccnc4cc(Cl)ccc34)C2)C1 | 0.234 µM | 162 nM | 0.166 µM | 135 nM | > 10 µM
O=C1CN(C(=O)c2ccnc3ccccc23)CCN1Cc1ccccc1F | > 10 µM | 6310 nM | 14.5 µM | > 10000 nM | > 10 µM
COc1ccc(CNCc2cc3ccccc3[nH]2)cc1CN(C)C | 5.89 µM | 3390 nM | 3.47 µM | 2290 nM | > 10 µM
FC(F)(F)c1ccc(-c2c(-c3ccccc3)ncn2Cc2ncn[nH]2)cc1 | 2.75 µM | 6920 nM | > 10 µM | > 10000 nM | > 10 µM
CCc1ccc2ncnc(NCCCN3CCN(CCO)CC3)c2c1 | 9.77 µM | 5620 nM | 6.31 µM | 5750 nM | > 10 µM
COc1ccc2c(C)cc(NCCCN3CCC[C@H](C(N)=O)C3)nc2c1 | 6.76 µM | 2190 nM | 2.69 µM | 3020 nM | > 10 µM
CCn1cc(-c2cccc(C(=O)N[C@@H](C)CN3CCc4ccccc4C3)c2)cn1 | > 10 µM | 8320 nM | 9.12 µM | 9770 nM | > 10 µM

— ChEMBL document CHEMBL5308541, “MAIP: An Open-Source Tool to Enrich High-Throughput Screening Output and Identify Novel, Druglike Molecules with Antimalarial Activity” (ACS Med Chem Lett, 2023)
